According to patent publication US20070027150A1 (priority 2005, published 2007):

Each compound was assayed against His-tagged N-terminal ATP binding domain (amino acid residues 9-236) of HSP90α (Homo sapiens, UniProt P07900) (assay: HSP90 inhibitor binding potency: TRF competition binding assay). Conditions: Table I; read-out: Hsp90 IC50 Range.
Description: HSP90 Inhibitor Binding Potency: TRF Binding Assay
In this example, the binding potency of HSP90 inhibitors as measured by a TRF binding assay is described.
TRF competition binding assays were performed to determine the binding potency (IC50 values) of HSP90 inhibitors. Purified His-tagged N-terminal ATP binding domain (amino acid residues 9-236) of HSP90α (HSP90α GeneID: 3320; mRNA Sequence NM_005348) was incubated for two hours at room temperature in binding buffer (50 mM HEPES, 6 mM MgCl2, 20 mM KCl and 0.1% BSA) with biotinylated radicicol and progressively higher concentrations of the competing compounds. A fraction of the mixture was transferred to capture plates (coated with streptavidin) and incubated for one hour at room temperature. After washing with DELFIA wash buffer, europium-labeled anti-his antibody was added and incubated for two hours at room temperature, followed by washing with DELFIA buffer. DELFIA enhancement solution was then added. After gentle shaking for 10 minutes, the plates were read in VICTOR for europium counts.
For `Cc1nc(N)nc2c1C(=O)CC(c1ccccc1-c1cccc(F)c1F)C2` (stereo not shown) [Compound 83, 2-amino-7-(2′,3′-difluoro-1,1′-biphenyl-2-yl)-4-methyl-7,8-dihydroquinazolin-5(6H)-one], the IC50 was < 1 µM.
`Cc1nc(N)nc2c1C(=O)CC(c1ccccc1-c1ccc(F)cc1F)C2` (stereo not shown) [Compound 84, 2-amino-7-(2′,4′-difluoro-1,1′-biphenyl-2-yl)-4-methyl-7,8-dihydroquinazolin-5(6H)-one] was tested, and the IC50 was < 1 µM.
In the case of `Cc1nc(N)nc2c1C(=O)CC(c1ccccc1-c1c(F)cccc1F)C2` (stereo not shown) [Compound 85, 2-amino-7-(2′,6′-difluoro-1,1′-biphenyl-2-yl)-4-methyl-7,8-dihydroquinazolin-5(6H)-one], the IC50 is reported as < 1 µM.
`Cc1nc(N)nc2c1C(=O)CC(c1ccc(F)cc1-c1ccccc1F)C2` (stereo not shown) [Compound 86, 2-amino-7-(5,2′-difluoro-biphenyl-2-yl)-4-methyl-7,8-dihydro-6H-quinazolin-5-one] was tested, and the IC50 was < 1 µM.
In the case of `Cc1nc(N)nc2c1C(=O)CC(c1ccc(F)cc1-c1cccnc1F)C2` (stereo not shown) [Compound 87, 2-amino-7-[4-fluoro-2-(2-fluoropyridin-3-yl)phenyl]-4-methyl-7,8-dihydroquinazolin-5(6H)-one], the IC50 is reported as < 1 µM.
With `Cc1nc(N)nc2c1C(=O)CC(c1cc(F)ccc1-c1cccnc1F)C2` (stereo not shown) [Compound 88, 2-amino-7-[5-fluoro-2-(2-fluoropyridin-3-yl)phenyl]-4-methyl-7,8-dihydroquinazolin-5(6H)-one] the IC50 was < 1 µM.
In the case of `Cc1nc(N)nc2c1C(=O)CC(c1ccc(F)cc1-c1cccc(F)n1)C2` (stereo not shown) [Compound 89, 2-amino-7-[4-fluoro-2-(6-fluoro-pyridin-2-yl)-phenyl]-4-methyl-7,8-dihydro-6H-quinazolin-5-one], the IC50 is reported as < 1 µM.
In the case of `Cc1nc(N)nc2c1C(=O)CC(c1ccccc1-c1ccccc1C(N)=O)C2` (stereo not shown) [Compound 90, 2′-(2-amino-4-methyl-5-oxo-5,6,7,8-tetrahydroquinazolin-7-yl)-1,1′-biphenyl-2-carboxamide], the IC50 is reported as < 1 µM.
In the case of `Cc1nc(N)nc2c1C(=O)CC(c1ccccc1-c1cccc(C(N)=O)c1)C2` (stereo not shown) [Compound 91, 2′-(2-amino-4-methyl-5-oxo-5,6,7,8-tetrahydroquinazolin-7-yl)-1,1′-biphenyl-3-carboxamide], the IC50 is reported as 1 to 10 µM.
`CC(=O)c1cccc(-c2ccccc2C2CC(=O)c3c(C)nc(N)nc3C2)n1` (stereo not shown) [Compound 92, 7-[2-(6-acetylpyridin-2-yl)phenyl]-2-amino-4-methyl-7,8-dihydroquinazolin-5(6H)-one] gave an IC50 of 1 to 10 µM.
In the case of `Cc1nc(N)nc2c1C(=O)CC(c1ccccc1-c1cccc(N(C)C)c1)C2` (stereo not shown) [Compound 93, 2-amino-7-[3′-(dimethylamino)-1,1′-biphenyl-2-yl]-4-methyl-7,8-dihydroquinazolin-5(6H)-one], the IC50 is reported as > 10 µM.
For `CCOc1cccc(-c2ccccc2C2CC(=O)c3c(C)nc(N)nc3C2)n1` (stereo not shown) [Compound 94, 2-amino-7-[2-(6-ethoxy-pyridin-2-yl)-phenyl]-4-methyl-7,8-dihydro-6H-quinazolin-5-one], the IC50 was 1 to 10 µM.
With `COc1ccccc1-c1cc(F)ccc1C1CC(=O)c2c(C)nc(N)nc2C1` (stereo not shown) [Compound 95, 2-amino-7-(5-fluoro-2′-methoxy-biphenyl-2-yl)-4-methyl-7,8-dihydro-6H-quinazolin-5-one] the IC50 was < 1 µM.
In the case of `COc1ccc(F)cc1-c1ccccc1C1CC(=O)c2c(C)nc(N)nc2C1` (stereo not shown) [Compound 96, 2-amino-7-(5′-fluoro-2′-methoxy-1,1′-biphenyl-2-yl)-4-methyl-7,8-dihydroquinazolin-5(6H)-one], the IC50 is reported as < 1 µM.
In the case of `COc1cccc(-c2cccnc2F)c1C1CC(=O)c2c(C)nc(N)nc2C1` (stereo not shown) [Compound 97, 2-amino-7-[2-(2-fluoropyridin-3-yl)-6-methoxyphenyl]-4-methyl-7,8-dihydroquinazolin-5(6H)-one], the IC50 is reported as < 1 µM.
In the case of `COc1ccc(-c2cccnc2F)c(C2CC(=O)c3c(C)nc(N)nc3C2)c1` (stereo not shown) [Compound 98, 2-amino-7-[2-(2-fluoropyridin-3-yl)-5-methoxyphenyl]-4-methyl-7,8-dihydroquinazolin-5(6H)-one], the IC50 is reported as < 1 µM.
